Source: patent US10343992B2, “1-cyano-pyrrolidine compounds as USP30 inhibitors” (MISSION THERAPEUTICS LIMITED, priority 2015, dated 2019)

Target: USP30 (Homo sapiens (Human), UniProt Q70CQ3)
Assay: USP30 biochemical FP or FI IC50 assay
Settings: read-out: IC50 range
Method in brief: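 Human USP30 preincubated 30 min at room temperature with compound (8-point series, 100 µM top final) in Tris pH 7.5, Tween 20, BSA, 5 mM β-mercaptoethanol, in duplicate. FP format: 50 nM TAMRA-peptide–isopeptide-ubiquitin substrate, ex 540/em 590. FI format: 100 nM ubiquitin-rhodamine 110, ex 487/em 535. Both read at 0 and after 2 h at room temperature.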

Chain of USP30 (Q70CQ3 57-517): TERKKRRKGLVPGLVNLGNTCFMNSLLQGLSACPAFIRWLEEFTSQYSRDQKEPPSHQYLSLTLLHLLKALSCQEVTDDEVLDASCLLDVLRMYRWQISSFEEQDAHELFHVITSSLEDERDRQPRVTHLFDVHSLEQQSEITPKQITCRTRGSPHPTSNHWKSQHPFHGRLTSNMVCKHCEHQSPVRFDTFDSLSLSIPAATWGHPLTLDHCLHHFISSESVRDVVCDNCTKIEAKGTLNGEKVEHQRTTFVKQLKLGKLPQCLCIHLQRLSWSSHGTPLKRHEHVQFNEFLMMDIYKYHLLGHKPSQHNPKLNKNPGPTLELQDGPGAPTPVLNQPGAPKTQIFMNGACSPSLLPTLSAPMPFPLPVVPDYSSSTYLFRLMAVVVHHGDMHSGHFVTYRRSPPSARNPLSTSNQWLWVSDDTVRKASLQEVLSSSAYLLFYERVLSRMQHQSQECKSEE

Compound | IC50 [nM]
CN(C(=O)N1CCc2ccccc21)[C@@H]1CCN(C#N)C1 [Example 265, (R)-N-(1-cyanopyrrolidin-3-yl)-N-methylindoline-1-carboxamide] | 1000 to 10000
N#CN1C[C@H]2CCN(C(=O)c3ccc(N4CCOCC4)c(Cl)c3)[C@H]2C1 [Example 268, (3aR,6aR)-1-(3-chloro-4-morpholinobenzoyl)hexahydro-pyrrolo[3,4-b]pyrrole-5(1H)-carbonitrile] | 100 to 1000
Cc1cc(-c2cc(C(=O)N[C@@H]3CCN(C#N)C3)on2)ccn1 [Example 270, (R)-N-(1-cyanopyrrolidin-3-yl)-3-(2-methylpyridin-4-yl)isoxazole-5-carboxamide] | 100 to 1000
Cc1cc(-c2cc(C(=O)N(C)[C@@H]3CCN(C#N)C3)on2)ccn1 [Example 273, (R)—N-(1-cyanopyrrolidin-3-yl)-N-methyl-3-(2-methylpyridin-4-yl)isoxazole-5-carboxamide] | 100 to 1000
(3aR,6aR)-1-(indoline-1-carbonyl)hexahydropyrrolo[3,4-b]pyrrole-5(1H)-carbonitrile [Example 269] | 1000 to 10000

Now from value to compound:

IC50 [nM] | Compound
100 to 1000 | CN(C(=O)c1cc2cc(-c3cnn(C)c3)ncc2[nH]1)[C@@H]1CCN(C#N)C1 [Example 263, (R)-N-(1-cyanopyrrolidin-3-yl)-N-methyl-5-(1-methyl-1H-pyrazol-4-yl)-1H-pyrrolo[2,3-c]pyridine-2-carboxamide]
100 to 1000 | CN(C(=O)N1CCOC(c2ccccc2)C1)[C@@H]1CCN(C#N)C1 (stereo partly drawn) [Example 264, N-((R)-1-cyanopyrrolidin-3-yl)-N-methyl-2-phenylmorpholine-4-carboxamide]
100 to 1000 | CN(C(=O)Nc1ccc(C(F)(F)F)nc1)[C@@H]1CCN(C#N)C1 [Example 266, (R)-1-(1-cyanopyrrolidin-3-yl)-1-methyl-3-(6-(trifluoromethyl)pyridin-3-yl)urea]
100 to 1000 | CN(C(=O)Nc1ccc(Cl)cn1)[C@@H]1CCN(C#N)C1 [Example 267, (R)-3-(5-chloropyridin-2-yl)-1-(1-cyanopyrrolidin-3-yl)-1-methylurea]
< 100 | Cc1ccc(-c2cc(C(=O)N[C@@H]3CCN(C#N)C3)on2)cc1C [Example 271, (R)-N-(1-cyanopyrrolidin-3-yl)-3-(3,4-dimethylphenyl)isoxazole-5-carboxamide]
< 100 | N#CN1CC[C@@H](NC(=O)c2cc(-c3ccc(F)cc3F)no2)C1 [Example 272, (R)-N-(1-cyanopyrrolidin-3-yl)-3-(2,4-difluorophenyl)isoxazole-5-carboxamide]
< 100 | (R)-N-(1-cyanopyrroldidin-3-yl)-6-(3,5-dimethylisoxazol-4-yl)-N-methyl-1H-indole-2-carboxamide [Example 262]
